{"source": "BindingDB's records for patent US20250368647", "about": "(Glaxosmithkline Intellectual Property Development, 2025)", "data": [{"molecular_target": "Sodium channel protein type 10 subunit alpha (Homo sapiens, UniProt Q9Y5Y9)", "sequence (Q9Y5Y9 whole entry)": "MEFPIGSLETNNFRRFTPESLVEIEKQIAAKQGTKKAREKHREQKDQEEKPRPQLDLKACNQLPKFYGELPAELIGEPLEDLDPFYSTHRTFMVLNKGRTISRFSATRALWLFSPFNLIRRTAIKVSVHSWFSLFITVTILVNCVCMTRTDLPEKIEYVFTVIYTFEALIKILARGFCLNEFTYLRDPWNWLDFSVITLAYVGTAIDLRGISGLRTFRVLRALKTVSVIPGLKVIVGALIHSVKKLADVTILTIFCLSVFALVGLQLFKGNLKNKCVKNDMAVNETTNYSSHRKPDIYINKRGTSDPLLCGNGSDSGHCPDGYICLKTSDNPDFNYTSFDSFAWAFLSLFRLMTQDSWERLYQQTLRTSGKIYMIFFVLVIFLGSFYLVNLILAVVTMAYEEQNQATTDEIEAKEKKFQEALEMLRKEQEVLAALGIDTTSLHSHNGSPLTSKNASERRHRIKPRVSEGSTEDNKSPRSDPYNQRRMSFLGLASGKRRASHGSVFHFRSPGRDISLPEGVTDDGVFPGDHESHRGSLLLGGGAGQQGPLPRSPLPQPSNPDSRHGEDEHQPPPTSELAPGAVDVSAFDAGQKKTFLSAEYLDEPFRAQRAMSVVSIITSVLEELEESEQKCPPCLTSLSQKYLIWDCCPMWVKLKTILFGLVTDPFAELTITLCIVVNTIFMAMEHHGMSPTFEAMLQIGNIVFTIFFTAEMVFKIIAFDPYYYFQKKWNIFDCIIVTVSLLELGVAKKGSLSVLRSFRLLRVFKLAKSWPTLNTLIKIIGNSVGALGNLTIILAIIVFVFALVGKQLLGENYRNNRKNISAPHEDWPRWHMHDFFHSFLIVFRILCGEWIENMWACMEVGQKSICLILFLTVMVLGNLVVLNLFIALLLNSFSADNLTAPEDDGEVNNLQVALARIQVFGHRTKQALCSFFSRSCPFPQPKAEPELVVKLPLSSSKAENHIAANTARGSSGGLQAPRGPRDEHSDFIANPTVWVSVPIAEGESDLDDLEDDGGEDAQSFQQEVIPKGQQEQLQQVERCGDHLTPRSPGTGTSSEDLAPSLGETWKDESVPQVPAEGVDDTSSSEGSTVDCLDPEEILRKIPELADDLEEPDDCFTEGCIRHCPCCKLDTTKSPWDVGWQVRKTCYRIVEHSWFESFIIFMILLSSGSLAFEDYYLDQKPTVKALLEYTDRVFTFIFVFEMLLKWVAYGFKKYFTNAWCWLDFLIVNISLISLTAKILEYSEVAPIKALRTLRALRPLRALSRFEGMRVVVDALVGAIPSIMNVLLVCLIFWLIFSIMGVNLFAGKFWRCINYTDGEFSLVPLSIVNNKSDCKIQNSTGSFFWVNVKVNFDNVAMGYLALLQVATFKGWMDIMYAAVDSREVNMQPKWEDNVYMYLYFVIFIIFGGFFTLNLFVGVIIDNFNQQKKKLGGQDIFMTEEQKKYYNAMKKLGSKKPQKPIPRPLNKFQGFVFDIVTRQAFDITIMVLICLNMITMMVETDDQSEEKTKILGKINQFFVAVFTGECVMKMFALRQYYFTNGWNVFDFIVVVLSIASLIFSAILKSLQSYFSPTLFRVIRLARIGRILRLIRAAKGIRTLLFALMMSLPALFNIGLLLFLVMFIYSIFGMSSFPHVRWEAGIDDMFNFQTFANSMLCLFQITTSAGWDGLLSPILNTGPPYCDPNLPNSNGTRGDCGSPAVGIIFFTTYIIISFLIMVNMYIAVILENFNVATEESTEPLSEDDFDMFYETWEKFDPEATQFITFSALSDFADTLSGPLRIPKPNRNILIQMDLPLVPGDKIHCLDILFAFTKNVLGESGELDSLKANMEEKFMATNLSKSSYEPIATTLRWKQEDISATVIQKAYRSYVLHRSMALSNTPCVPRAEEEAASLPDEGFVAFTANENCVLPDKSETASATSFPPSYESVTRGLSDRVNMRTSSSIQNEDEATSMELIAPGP", "assay": "Pharmacological Assay", "from_the_text": "Utilizing the voltage-clamp mode in the QPatch 48 HTX system a half inactivation state voltage protocol (V1/2) was used to determine pharmacological activity of compounds of the invention at Nav1.8 ion channels. A V1/2 protocol was utilized with the following voltage steps: a holding voltage of −100 mV was established followed by a 20 ms voltage step to 0 mV (P1), followed by an inactivating voltage step at −46 mV for 8 seconds, followed by a step to −100 mV for 20 ms, before a 20 ms step to 0 mV (P2), then returned to the holding voltage of −100 mV. This voltage protocol was repeated at a frequency of every 15 seconds, the current magnitude was quantified at the P2 step throughout the recording. Inhibition of the measured current amplitude with compounds of the invention was analyzed by fitting a 4-6 points dose-response curve allowing determination of the fifty percent inhibition concentration (IC50). P2 currents were normalized according to measurements made at baseline (Baseline, vehicle only), after compound (Input, at each test concentration), and after positive reference compound (FullResponse, to achieve complete block), fit to the following equation:n.ICPD=NormalizedCurrent=(Input-Baseline)(FullResponse-Baseline)[1570]To assess current run-down over the course of the experiment vehicle-only wells were utilized and the normalized current with vehicle-only (n.IVEH) was determined. To correct the compound response for run-down, the currents were corrected according to the following formula:n.IRD_Correct=(n.ICPD-n.IVEH)(1-n.IVEH)", "units": {"IC50": "nM"}, "values": [{"molecule": "O=C1c2ccc(C(F)(F)F)cc2N2CN1c1ccc(=O)[nH]c1CCCCCOc1cc(F)ccc12", "note": "[US20250368647, Example 19]", "IC50": 316}, {"molecule": "O=C1c2cc(C(F)(F)F)ccc2N2CN1c1ccc(=O)[nH]c1CCNCc1cc(F)c(F)cc12", "note": "[US20250368647, Example 47]", "IC50": 200}, {"molecule": "O=C1c2cc(F)c(C(F)(F)F)cc2N2CN1c1ccc(=O)[nH]c1CCNCc1cc(OC(F)(F)F)ccc12", "note": "[US20250368647, Example 51]", "IC50": 10}, {"molecule": "O=C1c2cc(F)c(C(F)(F)F)cc2N2CN1c1ccc(=O)[nH]c1CCNCc1c2ccc(OC(F)(F)F)c1F", "note": "[US20250368647, Example 52]", "IC50": 3.16}, {"molecule": "O=C1c2cc(OCC(F)(F)F)ccc2N2CN1c1ccc(=O)[nH]c1CCNCc1cc(F)ccc12", "note": "[US20250368647, Example 56]", "IC50": 1260}, {"molecule": "CC1CCNc2[nH]c(=O)ccc2N2CN(c3cc(C(F)(F)F)c(F)cc3C2=O)c2ccc(F)c(F)c21", "note": "(stereo unspecified) [US20250368647, Example 131]", "IC50": 15.8}]}]}
